Assay results from patent US20230303497A1, “BENZYLAMINE OR BENZYL ALCOHOL DERIVATIVE AND USES THEREOF” (CHENGDU HYPERWAY PHARMACEUTICALS CO., LTD, priority 2020, published 2023).

Target: human NaV1.8 ion channel (Homo sapiens (Human), UniProt Q9Y5Y9)
Assay: Compound inhibition activity on human NaV1.8 ion channel in HEK293 cells (whole-cell patch clamp)
Assay type: cell-based
Details: 100 nm concentration; HEK293 cells, resting protocol
Experimental: Test Case 1: Compound Inhibition Activity on Human NaV1.8 Ion Channel in HEK293 Cells
The final concentrations of the test compounds are prepared on the same day and then dissolved in extracellular solution. […] The intracellular solution (mM) contains: Aspartic acid, 140; MgCl2, 2; EGTA 11; HEPES, 10; pH 7.2 (CsOH titration). All test solutions contain 1 μM TTX.
The test solution are stored at a concentration of 3 mM in dimethyl sulfoxide (DMSO). The solutions will be dissolved in extracellular solution on the day of testing and prepared to the required concentration.
All experiments were performed at room temperature. Each cell itself is taken as the corresponding control.
At least one cell is tested per concentration.
HEK293 cell steady expressing NaV1.8 ion channel.
The intracellular fluid (mM) contains: Aspartic acid, 140; MgCl2, 2; EGTA 11; HEPES, 10; pH 7.2 (CsOH titration). […] Electrodes are drawn with PC-10 (Narishige, Japan). Recording is performed with whole-cell diaphragm clamp.
The cells are clamped at −80 mV and then depolarized to 10 mV with a sustained 10 ms square wave to give a Nav1.8 current. This procedure is repeated every 5 seconds.

Chain of human NaV1.8 ion channel (Q9Y5Y9 whole entry): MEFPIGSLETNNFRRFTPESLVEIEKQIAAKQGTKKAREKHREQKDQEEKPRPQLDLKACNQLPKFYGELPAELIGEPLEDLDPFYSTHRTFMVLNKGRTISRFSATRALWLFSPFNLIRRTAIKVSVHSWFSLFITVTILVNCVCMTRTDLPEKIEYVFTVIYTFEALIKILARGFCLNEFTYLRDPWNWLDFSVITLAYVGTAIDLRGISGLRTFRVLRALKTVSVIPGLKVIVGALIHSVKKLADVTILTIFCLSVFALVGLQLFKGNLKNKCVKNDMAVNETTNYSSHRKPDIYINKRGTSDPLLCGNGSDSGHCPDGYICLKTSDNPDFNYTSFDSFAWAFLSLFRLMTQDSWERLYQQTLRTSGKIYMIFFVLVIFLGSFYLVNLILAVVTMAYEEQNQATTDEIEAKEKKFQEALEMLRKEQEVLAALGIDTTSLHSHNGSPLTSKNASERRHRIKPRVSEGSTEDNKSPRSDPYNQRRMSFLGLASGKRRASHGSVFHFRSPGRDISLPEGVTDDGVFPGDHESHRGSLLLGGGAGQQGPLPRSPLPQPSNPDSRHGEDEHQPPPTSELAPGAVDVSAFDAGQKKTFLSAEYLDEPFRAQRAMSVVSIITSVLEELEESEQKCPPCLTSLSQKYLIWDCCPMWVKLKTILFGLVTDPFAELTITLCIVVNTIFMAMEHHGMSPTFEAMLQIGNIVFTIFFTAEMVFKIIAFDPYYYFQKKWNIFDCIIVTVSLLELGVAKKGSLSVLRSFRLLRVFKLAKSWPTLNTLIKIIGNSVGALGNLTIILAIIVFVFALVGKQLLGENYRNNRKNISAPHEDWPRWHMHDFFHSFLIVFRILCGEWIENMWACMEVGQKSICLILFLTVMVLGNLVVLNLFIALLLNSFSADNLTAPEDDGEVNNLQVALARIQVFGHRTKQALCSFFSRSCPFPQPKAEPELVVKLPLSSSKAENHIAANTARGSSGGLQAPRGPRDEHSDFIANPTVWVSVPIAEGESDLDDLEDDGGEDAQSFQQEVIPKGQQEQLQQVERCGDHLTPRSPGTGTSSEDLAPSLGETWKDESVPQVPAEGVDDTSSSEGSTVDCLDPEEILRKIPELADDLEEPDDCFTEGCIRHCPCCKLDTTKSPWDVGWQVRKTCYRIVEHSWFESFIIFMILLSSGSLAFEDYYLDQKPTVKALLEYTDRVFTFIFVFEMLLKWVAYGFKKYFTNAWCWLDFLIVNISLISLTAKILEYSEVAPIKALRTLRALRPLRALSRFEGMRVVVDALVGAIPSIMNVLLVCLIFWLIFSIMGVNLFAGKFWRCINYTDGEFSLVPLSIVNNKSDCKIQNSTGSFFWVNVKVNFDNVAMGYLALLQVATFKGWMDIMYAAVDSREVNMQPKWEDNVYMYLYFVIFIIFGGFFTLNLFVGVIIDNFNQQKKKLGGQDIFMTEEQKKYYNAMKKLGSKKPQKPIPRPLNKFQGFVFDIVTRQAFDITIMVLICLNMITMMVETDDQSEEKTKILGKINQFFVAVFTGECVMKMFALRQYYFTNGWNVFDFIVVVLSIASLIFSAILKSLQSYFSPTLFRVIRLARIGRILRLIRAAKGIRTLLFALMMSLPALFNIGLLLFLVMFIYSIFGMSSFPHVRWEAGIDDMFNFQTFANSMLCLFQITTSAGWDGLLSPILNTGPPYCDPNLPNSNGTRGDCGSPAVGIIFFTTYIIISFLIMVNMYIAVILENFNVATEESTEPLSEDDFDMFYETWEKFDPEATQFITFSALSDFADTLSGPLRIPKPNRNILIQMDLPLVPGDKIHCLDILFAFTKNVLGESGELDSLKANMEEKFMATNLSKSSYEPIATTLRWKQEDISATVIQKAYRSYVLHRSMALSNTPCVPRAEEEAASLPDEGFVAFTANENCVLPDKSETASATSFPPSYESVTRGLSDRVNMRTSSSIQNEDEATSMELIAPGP

| Inhibition ratio of compounds against Nav1.8 (Activity of inhibition) | Inhibition ratio of Nav1.8 (Activity of inhibition) | Compound |
| --- | --- | --- |
| B (80 > B >= 50) | – | Cc1cc(F)ccc1Oc1cc(C2CC2)c(C(F)(F)F)cc1C(=O)Nc1ccnc(OCC(O)CO)c1 (centres unmarked) [Example 63, 4-Cyclopropyl-N-(2-(2,3-dihydroxypropoxy)pyridin-4-yl)-2-(4-fluoro-2-methylphenoxy)-5-(trifluoromethyl) benzamide] |
| – | D (D < 20) | Cc1cc(F)ccc1Oc1ccc(C(F)(F)F)cc1C(=O)Nc1ccc(F)c(C2CCC(C(N)=O)N2)c1 (centres unmarked) [Example 16, 5-(2-fluoro-5-(2-(4-fluoro-2-methylphenoxy)-5-(trifluoromethyl)benzamido)phenyl) pyrrolidine-2-carboxacylamino] |

Same assay, conditions: 100 nm concentration; HEK293 cells, resting protocol; read-out: Inhibition ratio of Nav1.8 (Activity of inhibition)

| inhibition at 0.1 µM [%] | Compound |
| --- | --- |
| 50 to 80 | Cc1cc(F)ccc1Oc1cc(C2CC2)c(C(F)(F)F)cc1C(=O)Nc1ccc(F)c(C(C)CCN)c1 (centres unmarked) [Example 29, N-(3-(4-Aminobutan-2-yl)-4-fluorophenyl)-4-cyclopropyl-2-(4-fluoro-2-methylphenoxy)-5-(trifluoromethyl) benzamide] |
| 20 to 50 | Cc1cc(F)ccc1Oc1ccc(C(F)(F)F)cc1C(=O)Nc1ccc(F)c(C(O)C(N)=O)c1 (centres unmarked) [Example 26, N-(3-(2-Amino-1-hydroxy-2-oxoethyl)-4-fluorophenyl)-2-(4-fluoro-2-methylphenoxy)-5-(trifluoromethyl) benzamide] |
| < 20 | Cc1cc(F)ccc1Oc1ccc(C(F)(F)F)cc1C(=O)Nc1ccc(F)c(C2NCCNC2=O)c1 (centres unmarked) [Example 18, 2-(4-Fluoro-2-methylphenoxy)-N-(4-fluoro-3-(3-oxopiperazin-2-yl)phenyl)-5-(trifluoromethyl) benzamide] |
| 50 to 80 | Cc1cc(F)ccc1Oc1cc(C2CC2)c(C(F)(F)F)cc1C(=O)Nc1ccc(F)c(OCCN)c1 [Example 34, N-(3-(2-aminoethoxy)-4-fluorophenyl)-4-cyclopropyl-2-(4-fluoro-2-methylphenoxy)-5-(trifluoromethyl) benzamide] |
| > 80 | Cc1cc(F)ccc1Oc1cc(C2CC2)c(C(F)(F)F)cc1C(=O)Nc1ccc(F)c(C(N)CO)c1 (centres unmarked) [Example 11, N-(3-(1-Amino-2-hydroxyethyl)-4-fluorophenyl)-4-cyclopropyl-2-(4-fluoro-2-methylphenoxy)-5-(trifluoromethyl) benzamide] |
| > 80 | Cc1cc(F)ccc1Oc1cc(C(F)(F)F)ccc1C(=O)Nc1ccc(F)c(C(N)C(N)=O)c1 (centres unmarked) [Example 41] |
| 20 to 50 | Cc1cc(F)ccc1Oc1ccc(C(F)(F)F)cc1C(=O)Nc1ccc(F)c(CNCC(N)=O)c1 [Example 13] |
| 20 to 50 | Cc1cc(F)ccc1Oc1cc(C2CC2)c(C(F)(F)F)cc1C(=O)Nc1ccc(F)c(C(F)(F)CCO)c1 [Example 32, 4-Cyclopropyl-N-(3-(1,1-difluoro-3-hydroxypropyl)-4-fluorophenyl)-2-(4-fluoro-2-methylphenoxy)-5-(trifluoromethyl) benzamide] |
| > 80 | Cc1cc(F)ccc1Oc1cc(C2CC2)c(C(F)(F)F)cc1C(=O)Nc1ccc(F)c(C(N)CC(N)=O)c1 (centres unmarked) [Example 37] |
| 50 to 80 | Cc1cc(F)ccc1Oc1ccc(C(F)(F)F)cc1C(=O)Nc1ccc(F)c(CN)c1 [Example 12, N-(3-(Aminomethyl)-4-fluorophenyl)-2-(4-fluoro-2-methylphenoxy)-5-(trifluoromethyl) benzamide] |
| 20 to 50 | Cc1cc(F)ccc1Oc1ccc(C(F)(F)F)cc1C(=O)Nc1ccc(F)c(C(O)C2CCNC2=O)c1 (centres unmarked) [Example 25, 2-(4-fluoro-2-methylphenoxy)-N-(4-fluoro-3-(hydroxyl (2-oxopyrrolidin-3-yl)methyl)phenyl)-5-(trifluoromethyl) benzamide] |
| 50 to 80 | COCCNC(=O)C(N)c1cc(NC(=O)c2cc(C(F)(F)F)c(C3CC3)cc2Oc2ccc(F)cc2C)ccc1F (centres unmarked) [Example 44] |
| 50 to 80 | Cc1cc(F)ccc1Oc1cc(C2CC2)c(C(F)(F)F)cc1C(=O)Nc1ccc(F)c(C(N)C(=O)NCCO)c1 (centres unmarked) [Example 43] |

Same assay, conditions: 100 nm concentration; HEK293 cells, resting protocol; read-out: Inhibition ratio of compounds against Nav1.8 (Activity of inhibition)

| inhibition at 0.1 µM [%] | Compound |
| --- | --- |
| > 80 | Cc1cc(F)ccc1Oc1cc(C(F)(F)F)c(Cl)cc1C(=O)Nc1ccc(F)c(OCC(O)CNC(C)C)c1 (centres unmarked) [Example 106] |
| 50 to 80 | Cc1cc(F)ccc1Oc1cc(C(F)(F)F)c(Cl)cc1C(=O)Nc1cnnc(OC[C@@H](O)CO)c1 [Example 115] |
| > 80 | Cc1cc(F)ccc1Oc1cc(C2CC2)c(C(F)(F)F)cc1C(=O)Nc1ccc(F)c(C2CCNC(=O)N2)c1 (centres unmarked) [Example 51, 4-Cyclopropyl-2-(4-fluoro-2-methylphenoxy)-N-(4-fluoro-3-(2-oxohexahydropyrimidin-4-yl)phenyl)-5-(trifluoromethyl) benzamide] |
| 20 to 50 | Cc1cc(F)ccc1Oc1cc(C2CC2)c(C(F)(F)F)cc1C(=O)Nc1ccc(F)c(OCC(=O)NCC(F)(F)F)c1 [Example 61] |
| 50 to 80 | Cc1cc(F)ccc1Oc1ccc(C(F)(F)F)cc1C(=O)Nc1ccnc(OC[C@H](O)CO)c1 [Example 122] |
| 50 to 80 | Cc1cc(F)ccc1Oc1cc(C2CC2)c(C(F)(F)F)cc1C(=O)Nc1ccc(F)c(O)c1 [Example 56, 4-cyclopropyl-2-(4-fluoro-2-methylphenoxy)-N-(4-fluoro-3-hydroxyphenyl)-5-(trifluoromethyl) benzamide] |
| > 80 | COc1cc(F)ccc1Oc1cc(C(F)(F)F)c(Cl)cc1C(=O)Nc1ccnc(OC[C@H](O)CO)c1 [Example 120] |
| > 80 | Cc1cc(F)ccc1Oc1cc(C2CC2)c(C(F)(F)F)cc1C(=O)Nc1ccc(F)c(OCC(O)CNc2nccs2)c1 (centres unmarked) [Example 98] |
| > 80 | Cc1cc(F)ccc1Oc1cc(C2CC2)c(C(F)(F)F)cc1C(=O)Nc1ccc(F)c(C(C)C(O)CNC(C)(C)C)c1 (centres unmarked) [Example 55, N-(3-(4-(tert-butylamino)-3-hydroxybutan-2-yl)-4-fluorophenyl)-4-cyclopropyl-2-(4-fluoro-2-methylphenoxy)-5-(trifluoromethyl) benzamide] |
| > 80 | Cc1cc(F)ccc1Oc1cc(C2CC2)c(C(F)(F)F)cc1C(=O)Nc1ccc(F)c(OCC(O)CNC(C)C)c1 (centres unmarked) [Example 67] |
| 20 to 50 | Cc1cc(F)ccc1Oc1cc(C2CC2)c(C(F)(F)F)cc1C(=O)Nc1ccc(F)c(OC2CCC(CO)OC2)c1 (centres unmarked) [Example 84] |
| > 80 | Cc1cc(F)ccc1Oc1cc(C(F)(F)F)c(Cl)cc1C(=O)Nc1ccnc(OCC(O)CO)c1 (centres unmarked) [Example 103] |
| > 80 | Cc1cc(F)ccc1Oc1cc(C2CC2)c(C(F)(F)F)cc1C(=O)Nc1ccc(F)c(OCC(N)=O)c1 [Example 76] |
| 50 to 80 | Cc1cc(F)ccc1Oc1cc(C2CC2)c(C(F)(F)F)cc1C(=O)Nc1ccc(F)c(OCC(O)CO)c1 (centres unmarked) [Example 90] |
| 20 to 50 | COc1ccc(NCC(O)COc2cc(NC(=O)c3cc(C(F)(F)F)c(C4CC4)cc3Oc3ccc(F)cc3C)ccc2F)cc1 (centres unmarked) [Example 95] |
| 20 to 50 | Cc1cc(F)ccc1Oc1cc(C2CC2)c(C(F)(F)F)cc1C(=O)Nc1ccc(F)c(OC2CCC(CN)OC2)c1 (centres unmarked) [Example 85] |
| > 80 | Cc1cc(F)ccc1Oc1cc(C2CC2)c(C(F)(F)F)cc1C(=O)Nc1ccc(F)c(OCC(O)CNC(C)(C)C)c1 (centres unmarked) [Example 77] |
| 20 to 50 | Cc1cc(F)ccc1Oc1cc(C(F)(F)F)ccc1C(=O)Nc1cnnc(OC[C@H](O)CO)c1 [Example 109] |
| > 80 | Cc1cc(F)ccc1Oc1cc(C2CC2)c(C(F)(F)F)cc1C(=O)Nc1ccc(F)c(C(C)CC(N)=O)c1 (centres unmarked) [Example 48, N-(3-(4-Amino-4-oxobutan-2-yl)-4-fluorophenyl)-4-cyclopropyl-2-(4-fluoro-2-methylphenoxy)-5-(trifluoromethyl) benzamide] |
| 50 to 80 | Cc1cc(F)ccc1Oc1cc(C(F)(F)F)c(Cl)cc1C(=O)Nc1cnnc(OCC(O)CO)c1 (centres unmarked) [Example 101] |
| 50 to 80 | Cc1cc(F)ccc1Oc1cc(C2CC2)c(C(F)(F)F)cc1C(=O)Nc1ccc(F)c(C(F)CN)c1 (centres unmarked) [Example 47, N-(3-(2-Amino-1-fluoroethyl)-4-fluorophenyl)-4-cyclopropyl-2-(4-fluoro-2-methylphenoxy)-5-(trifluoromethyl) benzamide] |
| 50 to 80 | Cc1cc(F)ccc1Oc1cc(C2CC2)c(C(F)(F)F)cc1C(=O)Nc1ccc(F)c(OCc2nccs2)c1 [Example 75] |
| > 80 | Cc1cc(F)ccc1Oc1cc(C2CC2)c(C(F)(F)F)cc1C(=O)Nc1ccc(F)c(OCC(O)CNC(=O)CO)c1 (centres unmarked) [Example 65, 4-Cyclopropyl-2-(4-fluoro-2-methylphenoxy)-N-(4-fluoro-3-(2-hydroxy-3-(2-hydroxyacetylamino)propoxy)phenyl)-5-(trifluoromethyl) benzamide] |
| 20 to 50 | Cc1cc(F)ccc1Oc1cc(C2CC2)c(C(F)(F)F)cc1C(=O)Nc1ccc(F)c(OCC(O)CNC(C)C(F)(F)F)c1 (centres unmarked) [Example 91] |
| 50 to 80 | Cc1cc(F)ccc1Oc1cc(C2CC2)c(C(F)(F)F)cc1C(=O)Nc1cnnc(OC[C@@H](O)CO)c1 [Example 111] |
| 50 to 80 | Cc1cc(F)ccc1Oc1cc(C2CC2)c(C(F)(F)F)cc1C(=O)Nc1ccc(F)c(C(CCO)n2ccnc2)c1 (centres unmarked) [Example 49, 4-Cyclopropyl-2-(4-fluoro-2-methylphenoxy)-N-(4-fluoro-3-(3-hydroxy-1-(1H-imidazol-1-yl)propyl)phenyl)-5-(trifluoromethyl) benzamide] |
